Experimental data as given in US20230181599A1, “PROGESTOGEN FORMULATIONS AND USES THEREOF” (Shenzhen Evergreen Therapeutics Co., Ltd, priority 2020, published 2023).

Legend:
[1] = Saxton D J et al. 2004; cited from earlier work
[2] = test system: smoke exposure-induced COPD rats; assay: Lung function (FEV0.2/FVC, small animal spirometer) in smoke exposure-induced COPD rats; type: in vivo, Wistar rats; conditions: CS-exposed rats, nebulized drug; compared with the model group
Procedure: (§1) Seventy-two Wistar rats were randomly divided into the blank control group, model group, 17-HPC (0.5 mg/ml, 0.25 mg/ml and 0.1 mg/ml) groups, BUD (0.5 mg/ml and 0.1 mg/ml) groups, and combination treatment (0.5 mg/ml BUD+0.25 mg/ml 17-HPC and 0.1 mg/ml BUD+0.25 mg/ml 17-HPC) groups. Drug concentration is the nebulized solution concentration. Lung function (forced vital capacity) of rats was measured using the small animal spirometer, and differential count in the BALF was determined under the microscope. Serum and BALF cytokine (IL-6, IL-17, TNF-α and IL-β) levels were measured by ELISA. Inflammatory cell infiltration area and MLI in rat lung tissues were determined by HE staining. Lung function of rats was measured using the small animal spirometer after 24 weeks of CS exposure.

Body weight of COPD rats = type: in vivo, Wistar rats; conditions: at 24 weeks; for weight increase: vs model group / BUD alone groups
Excerpt: Inhibition of weight increase was lower in 17-HPC group than in the same dose BUD group.

[3] = target: ABCB1 efflux transporters (Homo sapiens, UniProt P08183); conditions: Bloise, E., et al. 2016; cited from earlier work
Chain of ABCB1 efflux transporters (P08183 whole entry): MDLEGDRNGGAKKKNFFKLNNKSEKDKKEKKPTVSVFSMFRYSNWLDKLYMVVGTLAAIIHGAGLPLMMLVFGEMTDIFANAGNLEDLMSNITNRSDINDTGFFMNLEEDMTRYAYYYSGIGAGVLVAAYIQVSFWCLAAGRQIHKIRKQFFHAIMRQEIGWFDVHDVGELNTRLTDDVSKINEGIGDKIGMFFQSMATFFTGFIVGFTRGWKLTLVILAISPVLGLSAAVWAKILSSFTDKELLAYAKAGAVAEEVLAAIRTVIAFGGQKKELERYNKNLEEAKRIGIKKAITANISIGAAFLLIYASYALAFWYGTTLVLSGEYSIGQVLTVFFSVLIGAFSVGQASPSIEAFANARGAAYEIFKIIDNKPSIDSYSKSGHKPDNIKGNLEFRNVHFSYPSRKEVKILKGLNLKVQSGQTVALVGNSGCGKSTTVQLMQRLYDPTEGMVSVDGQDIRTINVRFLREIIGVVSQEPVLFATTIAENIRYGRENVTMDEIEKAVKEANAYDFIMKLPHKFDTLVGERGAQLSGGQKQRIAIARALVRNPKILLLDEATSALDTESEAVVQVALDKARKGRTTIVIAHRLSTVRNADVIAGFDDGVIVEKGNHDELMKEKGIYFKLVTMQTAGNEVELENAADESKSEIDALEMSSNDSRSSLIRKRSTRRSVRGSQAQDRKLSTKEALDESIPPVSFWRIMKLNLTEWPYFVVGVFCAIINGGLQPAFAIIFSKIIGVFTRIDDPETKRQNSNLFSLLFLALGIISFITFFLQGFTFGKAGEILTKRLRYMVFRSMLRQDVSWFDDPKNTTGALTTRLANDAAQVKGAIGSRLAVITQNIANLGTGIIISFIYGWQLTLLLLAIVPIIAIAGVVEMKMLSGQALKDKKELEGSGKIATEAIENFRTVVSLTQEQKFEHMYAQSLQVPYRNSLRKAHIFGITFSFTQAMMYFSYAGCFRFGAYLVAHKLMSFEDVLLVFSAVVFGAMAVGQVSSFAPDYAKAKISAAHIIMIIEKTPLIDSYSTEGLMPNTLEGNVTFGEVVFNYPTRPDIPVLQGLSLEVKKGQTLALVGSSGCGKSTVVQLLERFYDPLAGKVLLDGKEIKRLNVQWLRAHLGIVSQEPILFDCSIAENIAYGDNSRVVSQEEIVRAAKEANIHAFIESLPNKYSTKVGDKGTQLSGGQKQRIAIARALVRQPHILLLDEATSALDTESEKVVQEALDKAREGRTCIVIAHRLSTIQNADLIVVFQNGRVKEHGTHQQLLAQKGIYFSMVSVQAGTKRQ

[4] = Seven-day inhalation toxicity study in rats (GLP); type: in vivo, Sprague-Dawley rats; conditions: both sexes, Sprague-Dawley, rat, in vivo, inhaled or intranasal; inhalation, 7 consecutive days, rats; preliminary results; read-out: no observed adverse effect level (NOAEL)
Procedure: (§2) A 7-day inhalation toxicity study in rats was conducted under GLP conditions. In this study, aerosolized 17-HPC was administered to Sprague-Dawley rats (10/sex/group) at 8, 24, and 72 mg/kg/day for 7 consecutive days. A control group of rats was dosed with aerosolized vehicle. Animals were observed daily for clinical signs. Body weight and food consumption were recorded at pretest, and then on Days 1, 4, and 7. In order to evaluate reversibility of 17-HPC treatment, a satellite rat group (5/sex/group) was dosed by inhalation at 72 mg/kg/day for 7 days, and then was sacrificed on Day 14. Except for the rats in the satellite group, all animals were sacrificed on Day 8. Hematology and biochemistry examinations were performed at the end of the study. Organ weight, gross pathology, and histopathology evaluations were performed.
(§3) Histopathological examinations on the animal tissues from the 24 and 72 mg/kg/day groups have not been completed prior to submission of this pre-IND package.
(§4) Based on the preliminary results of this study, inhalational administration of 17-HPC at 8 mg/kg/day (48 mg/m^2/day) was determined as the no observed adverse effect level (NOAEL) The proposed clinical study is a single dose inhalation study starting at a dose level of 300 μg, which is approximately 6 μg/kg/day (222 μg/m^2/day) based on a human body weight of 50 kg/person. Therefore, the NOAEL generated in this inhalation study is approximately 216 times greater than the proposed initial clinical dose based on body surface areas.

Sprague-Dawley rats = assay: Seven-day inhalation toxicity study in rats (GLP); type: in vivo
Procedure: as §2, §3, §4

[5] = test system: smoke exposure-induced COPD rats; assay: Differential count in BALF (neutrophils) of COPD rats; type: in vivo, Wistar rats; conditions: CS-exposed rats, nebulized drug
Procedure: (§5) Seventy-two Wistar rats were randomly divided into the blank control group, model group, 17-HPC (0.5 mg/ml, 0.25 mg/ml and 0.1 mg/ml) groups, BUD (0.5 mg/ml and 0.1 mg/ml) groups, and combination treatment (0.5 mg/ml BUD+0.25 mg/ml 17-HPC and 0.1 mg/ml BUD+0.25 mg/ml 17-HPC) groups. Drug concentration is the nebulized solution concentration. Lung function (forced vital capacity) of rats was measured using the small animal spirometer, and differential count in the BALF was determined under the microscope. Serum and BALF cytokine (IL-6, IL-17, TNF-α and IL-β) levels were measured by ELISA. Inflammatory cell infiltration area and MLI in rat lung tissues were determined by HE staining. […] The efficacy of high dose BUD was equivalent to that of high dose BUD+17-HPC.

[6] = test system: smoke exposure-induced COPD rats; assay: HE staining of lung tissue: inflammatory cell infiltration area and MLI in COPD rats; type: in vivo, Wistar rats
Procedure: as §5

[7] = PK of oral formulations of PR2005 in female dogs, relative bioavailability vs intramuscular injection (MAKENA); type: in vivo
Excerpt: This study determined the pharmacokinetic parameters of the test drug PR2005 (also referred to herein as 17-HPC) in different formulations after oral gavage or capsule administrations in dogs. This study further determined the relative bioavailability of the test drug PR2005 in each formulation, compared to intramuscular injection solution (MAKENA®).
PK parameters were estimated, including maximum plasma drug concentration (Cmax), time to reach Cmax (Tmax), time delay in absorption process (Tlag), area under the plasma concentration-time curve from time 0 to the last quantifiable data point (AUClast), area under the plasma concentration-time curve from time zero to infinity (AUCinf), plasma half-life (t1/2), and apparent plasma clearance (CL/F), apparent volume of distribution (Vz/F). All these parameters were computed using standard non-compartmental methods of analysis. Geometric mean and CV % are reported for most of PK parameters, and median with range is reported for Tmax and Tlag. Plasma PR2005 PK data was analyzed in Pheonix WinNonLin 8.1 (Certara USA, Inc.).
Log-transformed values of AUCinf were analyzed using a linear mixed-effects model. Least squares mean (LSM) for each treatment group and 90% confidence interval (CI) for the mean of the pairwise differences were estimated using this model. After back transformation from the log scale, estimates of geometric LSM and 90% CI for the ratio of means were calculated. Relative bioavailability (Fr %) was calculated as the ratio of dose normalized geometric least square mean (LSM) for test formulation and IM solution: […]
PR2005 250 mg intramuscular injection: 250 mg 17-HPC, 28.6% v/v of castor oil (CAS 8001-79-4), 46% v/v of benzyl benzoate (CAS 120-51-4), and 2% v/v of benzyl alcohol.
PR2005 250 mg oral (powder in capsules): 20% w/w of 17-HPC and 80% w/w mannitol. The particle size of 17-HPC is from about 2 to about 10 μm.
PR2005 250 mg Suspension #1: 30% w/w of 17-HPC and 70% castor oil (CAS 8001-79-4). The particle size of 17-HPC is from about 5 to about 30 μm.
PR2005 250 mg and 750 mg Solution #3: 30% w/w of 17-HPC, 63% w/w of benzyl benzoate (CAS 120-51-4), and 7% w/w of macrogolglycerol ricinoleate (CAS 61791-12-6).
The test items were administered on the first day of each trial. Each animal group was rotated through each trial with at least 4 days between trials and a […] 7-day washout between each test item administration.

[8] = test system: TNF-α, IL-1β, IL-6 and IL-17; assay: Serum and BALF cytokine levels by ELISA in COPD rats; type: in vivo, Wistar rats; conditions: different doses, aside from the low dose (0.1 mg/ml) 17-HPC group
Procedure: as §1, with “To examine the in vitro and in vivo efficacy of 17-HPC inhalation in chronic obstructive pulmonary disease (COPD) rats, a rat model of COPD was established by exposing Wistar rats to CS for 1 hour every day for a total of 180 days. Seventy-two” for “Seventy-two”, “staining.” for “staining. Lung function of rats was measured using the small animal spirometer after 24 weeks of CS exposure.”

[9] = 250 mg intramuscular injection, geometric mean

Question: For CCCCCC(=O)O[C@]1(C(C)=O)CC[C@H]2[C@@H]3CCC4=CC(=O)CC[C@]4(C)[C@H]3CC[C@@]21C [Solution 17-HPC, 17-[(1-Oxohexyl)oxyl]-pregn-4-ene-3,20-dione], which “activity when administered orally” value [1] is on record?
Answer: Its value is “inactive”.

Question: What about the FEV0.2/FVC % [2] of the same compound?
Answer: Its FEV0.2/FVC % is “improved FEV0.2/FVC % in a dose-dependent manner”.

Question: And the “Inhibition of weight increase vs same dose BUD group” value (Body weight of COPD rats)?
Answer: Its value is “lower”.

Question: And the weight increase (Body weight of COPD rats)?
Answer: Its weight increase is “no difference in weight increase”.

Question: What about the “ABCB1 efflux transporter substrate” value [3] of the same compound?
Answer: Its value is “substrate of ABCB1 efflux transporters”.

Question: What about the NOAEL at 7 days [4] of the same compound?
Answer: Its NOAEL at 7 days is 8 mg/kg/day.

Question: What about the “no observed adverse effect level (NOAEL), body surface area” value (Sprague-Dawley rats; inhalation, 7 days, rats) of the same compound?
Answer: Its value is 48 mg/m^2/day.

Question: What about the “NOAEL relative to the proposed initial clinical dose (300 μg) based on body surface areas” value (Sprague-Dawley rats; rat, in vivo) of the same compound?
Answer: The value was “approximately 216 times”.

Question: What about the “pathological alterations after a 7-day recovery period” value (Sprague-Dawley rats; rat, in vivo, 72 mg/kg/day) of the same compound?
Answer: Its value is “no remarkable pathological alterations”.

Question: And the “percentage of neutrophils in rat BALF” value [5]?
Answer: The value was “reduced the percentage of neutrophils”.

Question: What about the “inflammatory cell infiltration in lung tissue sections (HE staining)” value ([6]; 17-HPC groups vs model rats) of the same compound?
Answer: The value was “attenuated”.

Question: What about the MLI ([6]; aside from the 0.1 mg/ml 17-HPC group, dose-dependent) of the same compound?
Answer: Its MLI is “decreased”.

Question: And the “inflammatory cell infiltration in the lung tissues” value ([6]; high dose 17-HPC)?
Answer: The value was “antagonize inflammatory cell infiltration”.

Question: What about the Cl/F [7, 9] of the same compound?
Answer: The Cl/F was 35.68 L/h.

Question: What about the V [7, 9] of the same compound?
Answer: Its V is 2485 L.

Question: What about the half-life ([7]; female, dog, plasma, im, 250 mg intramuscular injection, geometric mean) of the same compound?
Answer: Its half-life is 48.4 h.

Question: What about the Tmax ([7]; female, dog, plasma, im, 250 mg intramuscular injection, median) of the same compound?
Answer: Its Tmax is 48 h.

Question: What about the “dose proportionality of Cmax and AUC, 250 to 750 mg” value ([7]; oral) of the same compound?
Answer: The value was “generally greater than dose proportional”.

Question: And the “TNF-α, IL-1β, IL-6 and IL-17 levels in the BALF” value [8]?
Answer: The value was “downregulate”.

Question: For CCCC1O[C@@H]2C[C@H]3[C@@H]4CCC5=CC(=O)C=C[C@]5(C)[C@H]4[C@@H](O)C[C@]3(C)[C@]2(C(=O)CO)O1 (some centres unmarked) [BUD, budesonide], which weight increase (Body weight of COPD rats) is on record?
Answer: The weight increase was “inhibited weight increase”.
